Measurements reported in patent publication US7345091B2, “Carotenoid ether analogs or derivatives for the inhibition and amelioration of disease” (Cardax Pharmaceuticals, Inc., priority 2002, dated 2008).

Legend:
[1] = test system: connexin 43 protein expression; assay: Induction of connexin 43 protein expression (Western blot, 96 hours); assay type: cell-based, mouse; conditions: 10^-8 M, 96-hour time point
Experimental: In brief, mouse embryonic fibroblast CH3/10T^1/2 cells were treated with the following formulations in a 4 mL cell culture system with media containing 2% calf serum: • 1. TTNPB [p-(E)-2-(5,6,7,8-tetrahydro-5,5,8,8-tetramethyl-2-napthyl) propenyl benzoic acid] 10^−8 M in acetone [positive control for connexin 43 upregulation (4 μL in 4 mL] • 2. Disodium salt disuccinate astaxanthin derivative XVI/H2O at 10^−5 M (40 μl in 4 mL) • 3. Disodium salt disuccinate astaxanthin derivative XVI/H2O at 10^−6 M (4 μl in 4 mL) • 4. Disodium salt disuccinate astaxanthin derivative XVI/H2O at 10^−7 M (1:10 dilution and 4 μl in 4 mL) • 5. Disodium salt disuccinate astaxanthin derivative XVI H2O/ethanol [EtOH] formulation at 10^-5 M (40 μl in 4 mL) • 6. Disodium salt disuccinate astaxanthin derivative XVI H2O/EtOH formulation at 10^−6 M (4 μl in 4 mL) • 7. Sterile H2O control (40 μl in 4 mL) • 8. Sterile H2O/EtOH control (20 μL EtOH, 20 μL H2O in 4 mL) • 9. Media control (4 mL)
Cells were harvested after 96 hours incubation with test compounds and control solutions. All media solutions were identical in color, however after treatment with the disodium salt disuccinate astaxanthin derivative XVI at both 10^−5 dilutions, the color subjectively changed to an orange-red color. Cells treated with TTNPB appeared striated with light microscopy, evidence of differentiation to myocytes, an expected result in this cell culture system. After harvest and pelleting of cells, tubes containing both 10^−5 disodium salt disuccinate astaxanthin derivative XVI solutions were bright red; both 10^−6 dilution tubes were a pink color. As documented previously for other colored carotenoids, this was subjective evidence for cellular uptake of the test compounds.
Cells were then lysed, and 50 μg of each protein was electrophoresed on a 10% polyacrylamide gel. The gel was then transferred to a nitrocellulose filter. Total protein was assayed with Coomassie blue staining (FIG. 29; lanes 6, 7, and 9 were smeared secondary to gel transfer, and were not included in the quantitative comparison [FIG. 31)]. […]

C3H/10T1/2 cells = assay: Assembly of Cx43 into plaques (immunofluorescent staining); assay type: cell-based, mouse; conditions: 1×10^-8 M in tetrahydrofuran, 4 days
Experimental: In this experiment expression and assembly of Cx43 into plaques was assessed by immunofluorescent staining. Procedures were essentially as described in Zhang (1992). Briefly, confluent cultures of C3H/10T1/2 cells were grown on Permanox plastic 4-chamber slides (Nalge Nunc International, Naperville, Ill.) and treated for 4 days with: (1) the disodium salt disuccinate astaxanthin derivative XVI (statistical mixture of stereoisomers) dissolved in a 1:2 EtOH/H2O formulation; (2) the retinoid TTNPB at 1×10^−8 M in tetrahydrofuran as a positive control; or (3) 1:2 EtOH/H2O as a solvent control. Cells were fixed with −20° C. methanol overnight, washed in buffer, blocked in 1% bovine serum albumin (Sigma, St, Louis, Mo.) in PBS, and incubated with the rabbit polyclonal anti-Cx43 antibody (Zymed, San Francisco, Calif.) as in (2) above and detected with Alexa568 conjugated anti-rabbit secondary (Molecular Probes, Eugene, Oreg.). Slides were illuminated with […] light and images were acquired at a wavelength of 600 nm using the Zeiss Axioscope light microscope and a Roper Scientific cooled CCD camera. […] In cultures treated with solvent as control, such immunoreactive plaques were infrequent and were smaller than those detected in cells treated with the statistical mixture of stereoisomers of the disodium salt disuccinate astaxanthin derivative XVI or with TTNPB as positive control. […]

[2] = read-out: antioxidant ED50 (protective level); cited from earlier work
superoxide anion = assay: Superoxide anion scavenging by EPR (DEPMPO spin trap) in phorbol ester-stimulated isolated neutrophils; assay type: cell-based, human; conditions: Homo sapiens, Neutrophil, Solvent DMSO, 0.1 mM; read-out: Mean (% inhibition) of superoxide anion signal
Experimental: In an experiment, neutrophils were isolated on a Percoll gradient from whole blood from a human volunteer. The isolated neutrophils were then re-suspended in phosphate-buffered saline, and maximally stimulated with phorbol ester to induce the respiratory burst and production of superoxide anion. To the solution of activated human neutrophils, the disodium salt disuccinate astaxanthin derivative XVI was added at various concentrations, and the superoxide signal [as measured with electron paramagnetic resonance (EPR) spectroscopy] was subsequently measured. […] The disodium salt disuccinate astaxanthin derivative XVI tested at 100 μM scavenged 28% of the total signal. At 3 mM, almost no superoxide signal remained. […] In addition to reducing the superoxide anion signal important in ischemia-reperfusion injury, it is also likely that myocardial salvage can be achieved with the described carotenoid derivative, as superoxide anion plays a major role in tissue injury and death during prolonged myocardial ischemia. In a third experiment, neutrophils were again isolated on a Percoll gradient from whole blood from a second human volunteer. The isolated neutrophils were then re-suspended in phosphate-buffered saline, and maximally stimulated with phorbol ester to induce the respiratory burst and production of superoxide anion. […] Astaxanthin 2E was dissolved in HPLC grade dimethylsulfoxide (DMSO; Sigma-Aldrich, St. Louis, Mo.). The disodium disuccinate derivatives XVI of astaxanthin 2E were tested separately in […] formulations: statistical mixture of stereoisomers (as for astaxanthin, above, a 1:2:1 mixture of all-E; labeled as “mixture” in all tables and figures); 3S,3'S, and 3R,3'R (optical isomers or enantiomers); and meso (mixture of identical 3S,3'R and 3'S,3R; diastereomers of the enantiomeric pair). […] The disuccinate derivatives were first tested at the appropriate final concentrations in pure aqueous solution (deionized water) from stock solutions of 10 mM. Each of the four disuccinate derivatives were then tested from stock solutions prepared in a 1:2 mixture of ethanol (final concentration of EtOH in stock solution 331⁄3%; final concentration in isolated neutrophil assay 0.3%; HPLC grade ethanol, Sigma-Aldrich, St. Louis, Mo.) at 10 mM. […] Metaphore® Pharmaceuticals, Inc., St. Louis, Mo.) were also performed. Human polymorphonuclear leukocytes (PMNs) were isolated from freshly sampled venous blood of a single volunteer by Percoll density gradient centrifugation, which yielded PMNs with a purity of >95%. Each 10 mL of whole blood was mixed with 0.8 mL of 0.1 M EDTA and 25 mL of saline. The diluted blood was layered over 9 mL of Percoll at a specific density of 1.080 g/mL. After centrifugation at 400×g for 20 min at 20° C., the plasma, mononuclear cell, and Percoll layers were removed. Erythrocytes were lysed by addition of 18 mL of ice-cold water for 30 s, followed by 2 mL of 10× PIPES buffer (25 mM PIPES, 110 mM NaCl, and 5 mM KCl, titrated to pH 7.4 with NaOH). Cells were pelleted at 4° C., the supernatant was decanted, and the procedure was repeated. After the second hypotonic lysis, cells were washed twice with PAG buffer (PIPES buffer containing 0.003% human serum albumin and 0.1% glucose). Afterward, PMNs were counted by light microscopy on a hemocytometer. The final pellet was then suspended in PAG-CM buffer (PAG buffer with 1 mM CaCl2 and 1 mM MgCl2). All EPR measurements were performed using a Bruker ER 300 EPR spectrometer operating at X-band with a TM110 cavity. The microwave frequency was measured with a Model 575 microwave counter (EIP Microwave, Inc., San Jose, Calif.). To measure O^ -2 generation from phorbol-ester (PMA)-stimulated PMNs, EPR spin-trapping studies were performed using DEPMPO (Oxis, Portland, Oreg.) at 10 mM. 1×10^6 PMNs were stimulated with PMA (1 ng/mL) and loaded into capillary tubes for EPR measurements. […]

[3] = Text: FIG. 27 and FIG. 28 depict the results of spectral analysis after flash photolysis of the formation of triplet and carotenoid cation radical states for non-esterified, free astaxanthin 2E and the diacid disuccinate astaxanthin derivative XV were obtained. Formation of the carotenoid cation radical is a measure of the potential biophysical behavior of the novel derivative as an antioxidant. If a derivative retains the antioxidant behavior of non-esterified, free astaxanthin, then all previously documented (i.e. literature precedent) therapeutic applications for astaxanthin can be reasonably assumed for the novel derivative, including at least singlet oxygen quenching, lipid peroxidation chain-breaking, and/or direct radical scavenging.
In this experiment, nitronaftalin (NN) was used as the photosensitizer. After irradiation, the excited sensitizer (NN*) forms a sensitizer triplet (^3NN). When ^3NN encounters a carotenoid, energy and electron transfer reactions with ^3NN take place. The resulting relatively stable ^3car and carotenoid cation radicals (car*^+) are detected by characteristic absorption bands. Non-polar solvents (e.g. hexane) favor the formation of ^3car, and more polar solvents (alcohols, water) favor the formation of the car.^+. The anion radical of the sensitizer (NN.^−) is not typically seen because of a low absorption coefficient.
The ^3car decays rather quickly. After 15 μs, half of the ^3car has disappeared, and after 50 μs, no ^3car is left.
The spectrum of asta 2E is nearly identical to that of astaCOOH XV. After 50 μs, the ^3car has disappeared. During this time frame, the car.^+ is stable. Negative and positive peaks in the absorption spectra for astaCOOH XV and asta 2E are superimposable.

[4] = test system: C3H10T1/2 cell culture model; assay: Inhibition of MCA-induced neoplastic transformation; assay type: cell-based, mouse; conditions: for percent reduction of MCA-induced neoplastic transformation: 3×10^-6 M in THF
Experimental: Non-esterified, free astaxanthin 2E is generated in the mammalian gut after oral administration of esterified astaxanthin. Only free astaxanthin is found in mammalian plasma and solid organs. […] Inherent esterase activity of serum albumin, and the action of promiscuous esterases in serum and solid organs rapidly generates non-esterified, free astaxanthin after parenteral administration of the disodium disuccinate astaxanthin derivative (XVI). […] An experiment was performed to assess the ability of non-esterified, free astaxanthin (the in vivo final cleavage product of the disodium salt disuccinate astaxanthin derivative (XVI), tested as the all-trans mixture of stereoisomers 3S,3′S, meso, and 3R,3′R in a 1:2:1 ratio) to inhibit neoplastic transformation in the C3H10T1/2 cell culture model developed in the lab of the late Charles Heidelberger (Reznikoff, 1973).
This experiment was conducted according to protocols established previously (Bertram, 1991 and Pung, 1988). In brief, the 10T1/2 cells, derived from mouse embryonic fibroblasts, were seeded at a density of 10^3 cells/60 mm dish in Eagle's Basal Media (BME) (Atlanta Biologicals, Atlanta, Ga.), supplemented with 4% fetal calf serum (Atlanta Biologicals, Atlanta, Ga.) and 25 μg/mL gentamicin sulfate (Sigma, St. Louis, Mo.). Cells were treated 24 hours later with 5.0 μg/ml MCA (Sigma, St. Louis, Mo.) in acetone or with 0.5% acetone (final concentration) as a control. Media was changed 24 hours after MCA treatment. Cells were treated with astaxanthin in THF or with retinol acetate in acetone 7 days later, and re-treated every 7 days for 4 weeks. Other dishes were treated with the appropriate solvent controls. After 5 weeks from the start of the experiment, cells were fixed with methanol and stained with 10% Giemsa stain (Sigma, St. Louis, Mo.) and scored for type II and type III foci as per Reznikoff (1973).

[5] = human, in vivo, po, 1.1 mg/kg; cited from earlier work

| Structure (SMILES) | induction of connexin 43 expression [1] | assembly of immunoreactive Cx43 into plaques (C3H/10T1/2 cells) | EC50 [2] [µM] | inhibition at 100 µM (superoxide anion) [%] | stability of the carotenoid cation radical (car.+) [3] | time after which no 3car (carotenoid triplet) is left ([3]; acetonitrile, sensitizer NN) [μs] | percent reduction of MCA-induced neoplastic transformation ([4]; 4-week treatment) | percent reduction of MCA-induced neoplastic transformation ([4]; 4-week treatment, listed as Non-esterified, free astaxanthin) [%] | numbers of MCA-induced transformed foci ([4]; 3×10^-6 M, 1×10^-6 M and 3×10^-7 M, 4-week treatment, vs MCA + THF control) | potency as inhibitor of transformation compared with previously tested carotenoids ([4]; comparison with data of Bertram, 1991 (1×10^-5 M)) | Cmax, plasma levels [5] [ng/mL] |
| --- | --- | --- | --- | --- | --- | --- | --- | --- | --- | --- | --- |
| C/C(=C\c1ccc(C(=O)O)cc1)c1ccc2c(c1)C(C)(C)CCC2(C)C [TTNPB, p-(E)-2-(5,6,7,8-tetrahydro-5,5,8,8-tetramethyl-2-napthyl) propenyl benzoic acid, reference compound] | effective at inducing connexin 43 expression | exhibited assembly of immunoreactive Cx43 into plaques |  |  |  |  |  |  |  |  |  |
| CC1=C(/C=C/C(C)=C/C=C/C(C)=C/C=C/C=C(C)/C=C/C=C(C)/C=C/C2=C(C)C(=O)C(O)CC2(C)C)C(C)(C)CC(O)C1=O (centres unmarked) [Astaxanthin 2E, Astaxanthin] |  |  | 0.2 | 28 | stable | 50 | complete suppression of the transformed phenotype | 100 | concentration-dependent decrease | far more potent inhibitor of transformation than either β-carotene or canthaxanthin | 1300 |
